Reference: paper PMC11784839, “Monoaminergic neurotransmitters are bimodal effectors of tau aggregation” (Science Advances, 2025)

Molecular target: tau (Homo sapiens, UniProt P10636)
Experiment: MCE Phenols Library screening, tau biosensor cell seeding assay (AvZ)
Format: cell-based
Details: for Z repl 1 / Z Repl 2: Z score; for Z repl 1 / raw data 1: replicate 1; for Z Repl 2 / raw data 2: replicate 2; for AvZ (average z score of seeding, SDs from the mean level of seeding): 10 μM phenol in cell cultures, AD brain homogenate preincubated 16 hours, two biological replicates, positive = catalyzes seeding, negative = inhibits
[1] = average Z score of the two replicates, MCE Phenols Library screen
[2] = average puncta of the two replicates
[3] = average Z score of the two replicates, tau seeding
[4] = average Z score of two replicates, Phenols Library screen

Chain of tau (P10636 623-695 limits assumed): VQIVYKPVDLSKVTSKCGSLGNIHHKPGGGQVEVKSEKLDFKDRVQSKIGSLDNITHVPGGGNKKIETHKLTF

Row | Molecule | Z repl 1 | Z Repl 2 | av Z [1] | av puncta [2] | raw data 1 (raw puncta) | raw data 2 (raw puncta) | av puncta (average of raw data 1 and 2) | raw data 1 (puncta) | raw data 2 (puncta) | av Z (average Z score of the two replicates, tau biosensor seeding, MCE Phenols Library screen) | av Z [3] | AvZ (average z score of seeding, SDs from the mean level of seeding) | av Z [4]
1 | O=c1c(-c2ccc(O)cc2)coc2c([C@@H]3O[C@H](CO[C@@H]4OC[C@@H](O)[C@H](O)[C@H]4O)[C@@H](O)[C@H](O)[C@H]3O)c(O)ccc12 [Puerarin 6''-O-Xyloside] | -0.042 | -0.868 | -0.455 | 14673.6 | 25849 | 3498.14 | – | – | – | – | – | – | –
2 | O=c1cc(-c2ccc(O)cc2)oc2cc(O)c([C@@H]3O[C@H](CO)[C@@H](O)[C@H](O)[C@H]3O[C@@H]3O[C@H](CO)[C@@H](O)[C@H](O)[C@H]3O)c(O)c12 [Meloside A] | -1.304 | -0.878 | -1.091 | – | – | – | 7038.23 | 10691.8 | 3384.65 | – | – | – | –
3 | O=c1cc(-c2ccccc2)oc2cccc(O)c12 [5-Hydroxyflavone] | -1.378 | -0.72 | -1.049 | – | – | – | 7440.82 | 9800.36 | 5081.28 | – | – | – | –
4 | CC(C)=CCc1cc2c(=O)cc(-c3ccc(O)cc3)oc2cc1O [Licoflavone A] | 1.035 | 0.525 | – | – | – | – | 28570.9 | 38768.9 | 18372.9 | 0.78 | – | – | –
5 | O=C(O)[C@H]1O[C@@H](Oc2cc(O)c3c(=O)cc(-c4ccccc4)oc3c2)[C@H](O)[C@@H](O)[C@@H]1O [Chrysin-7-O-glucuronide] | 0.79 | 0.073 | – | – | – | – | 24687.2 | 35829.5 | 13544.8 | – | 0.431 | – | –
6 | N[C@@H](Cc1ccc(O)c(Cl)c1)C(=O)O [3-Chloro-L-tyrosine] | 0.451 | -0.515 | – | – | – | – | 19517.9 | 31767.4 | 7268.49 | – | – | -0.032 | –
7 | O=C1c2ccccc2C(=O)c2c(O)ccc(O)c21 [Quinizarin] | -1.021 | -0.252 | -0.637 | 12081.4 | – | – | – | 14091.5 | 10071.4 | – | – | – | –
8 | O=C(O)c1cc(O)c2c(c1)[C@H]([C@H]1c3cccc(O)c3C(=O)c3c(O)cc(C(=O)O)cc31)c1cccc(O)c1C2=O [Sennidin B] | 0.553 | -0.073 | – | – | – | – | 22482.9 | 32984.9 | 11981 | – | 0.24 | – | –
9 | CCCOC(=O)c1cc(O)c(O)c(O)c1 [Propyl gallate] | -0.716 | -0.982 | – | – | – | – | 10013.9 | 17751.7 | 2276.1 | – | – | -0.849 | –
10 | O=c1c2cc(O)c(O)cc2oc2c([C@@H]3O[C@H](CO)[C@@H](O)[C@H](O)[C@H]3O)c(O)cc(O)c12 [Isomangiferin] | 0.307 | 0.537 | – | – | – | – | 24267.1 | 30032.6 | 18501.6 | – | 0.422 | – | –
11 | COc1cc2oc(-c3ccccc3)cc(=O)c2c(O)c1OC [Mosloflavone] | 0.192 | 0.208 | – | – | – | – | 21820.5 | 28649.1 | 14991.8 | – | 0.2 | – | –
12 | COc1ccc2c(=O)c(-c3ccc(O)cc3)coc2c1 [Isoformononetin] | 0.35 | -0.155 | – | – | – | – | 20831 | 30549.1 | 11112.8 | – | – | – | 0.098
13 | COc1cc(CCO)ccc1O [Homovanillyl alcohol] | -0.272 | 0.136 | – | – | – | – | 18647.3 | 23079.4 | 14215.2 | – | – | -0.068 | –
14 | O=C(/C=C/c1ccc(O)cc1)CC(=O)/C=C/c1ccc(O)cc1 [Bisdemethoxycucurmin] | 0.602 | -0.122 | – | – | – | – | 22516.9 | 33572.4 | 11461.3 | – | 0.24 | – | –
15 | O=c1ccoc2cc(O)cc(O)c12 [5,7-Dihydroxychromone] | -1.184 | -0.309 | -0.746 | 10800.5 | – | – | – | 12131.6 | 9469.43 | – | – | – | –
16 | O.O=C(O)c1cc(O)c(O)c(O)c1 [Gallic acid (hydrate)] | -1.396 | -1.097 | – | – | – | – | 5320.33 | 9587.18 | 1053.49 | – | – | -1.246 | –
17 | Theaflavin 3,3'-digallate | – | – | – | – | – | – | 323.309 | 392.747 | 253.87 | – | – | – | –

Row | Molecule | Z repl 1 | Z Repl 2 | av Z [1] | av puncta [2] | raw data 1 (raw puncta) | raw data 2 (raw puncta) | av puncta (average of raw data 1 and 2) | raw data 1 (puncta) | raw data 2 (puncta) | av Z (average Z score of the two replicates, tau biosensor seeding, MCE Phenols Library screen) | av Z [3] | AvZ (average z score of seeding, SDs from the mean level of seeding) | av Z [4]
18 | CC(C)=CCC[C@]1(C)C=Cc2c(O)c3c(c(CC=C(C)C)c2O1)O[C@]12C(=C[C@@H]4C[C@H]1C(C)(C)O[C@@]2(C/C=C(/C)C(=O)O)C4=O)C3=O [Gambogic acid] | -2.192 | -0.952 | -1.572 | – | – | – | 1315.22 | 33.834 | 2596.6 | – | – | -1.57 | –
19 | C[C@H]1CCCC(=O)CCCCCc2cc(O)cc(O)c2C(=O)O1 [Zearalanone] | 0.089 | -0.477 | – | – | – | – | 17549.1 | 27422.4 | 7675.78 | – | – | – | -0.194
20 | COc1cc(/C=C/COC(=O)/C=C/c2ccc(O)c(OC)c2)ccc1O [Coniferyl ferulate] | 0.368 | -0.434 | – | – | – | – | 19449.2 | 30768 | 8130.42 | – | – | – | -0.033
21 | O=c1ccc2cc(O)c(O)cc2o1 [Esculetin] | -0.338 | -0.78 | -0.559 | 13364.4 | – | – | – | 22288.3 | 4440.46 | – | – | – | –
22 | O=C(/C=C/c1ccc(O)c(O)c1)OC[C@H]1O[C@@H](OCCc2ccc(O)c(O)c2)[C@H](O)[C@@H](O)[C@@H]1O [Calceolarioside B] | 0.11 | -0.703 | -0.297 | 16462.2 | 27671.5 | 5252.85 | – | – | – | – | – | – | –
23 | CC(=O)OCCc1ccc(O)c(O)c1 [4-Hydroxytyrosol acetate] | – | – | – | – | – | – | – | – | – | – | – | -0.526 | –
24 | COc1ccc(-c2oc3cc(O)cc(O)c3c(=O)c2O)cc1O [Tamarixetin] | -0.357 | -0.633 | -0.495 | 14033.4 | – | – | – | 22060 | 6006.83 | – | – | – | –
25 | COc1ccc(-c2coc3cc(O[C@@H]4O[C@H](CO)[C@@H](O)[C@H](O)[C@H]4O)c(OC)c(O)c3c2=O)cc1O [Iristectorin A] | 0.106 | 0.25 | – | – | – | – | 21528.7 | 27620 | 15437.3 | – | 0.178 | – | –
26 | O=C(O)c1cc(O)c2c(c1)[C@H]([C@H]1c3cc(C(=O)O)cc(O)c3C(=O)c3c(O[C@@H]4O[C@H](CO)[C@@H](O)[C@H](O)[C@H]4O)cccc31)c1cccc(O[C@@H]3O[C@H](CO)[C@@H](O)[C@H](O)[C@H]3O)c1C2=O [Sennoside A] | -1.043 | -0.801 | -0.922 | – | – | – | 9021.29 | 13826.4 | 4216.17 | – | – | – | –
27 | O=C(O)CC(O)(CC(=O)OCc1ccc(O[C@@H]2O[C@H](CO)[C@@H](O)[C@H](O)[C@H]2O)cc1)C(=O)O (some centres unmarked) [Parishin E] | -1.04 | -0.216 | -0.628 | 12158.4 | – | – | – | 13862 | 10454.8 | – | – | – | –
28 | O=C(O[C@@H]1O[C@@H]2COC(=O)c3cc(O)c(O)c(O)c3-c3c(cc(O)c(O)c3O)C(=O)O[C@H]([C@H]1O)[C@@H]2O)c1cc(O)c(O)c(O)c1 [Corilagin] | -1.842 | -1.134 | -1.488 | – | – | – | 2445.41 | 4240.16 | 650.661 | – | – | – | –
29 | CC(C)=CCc1c2ccoc2c(O)c2oc(=O)ccc12 [Alloimperatorin] | 0.545 | -0.475 | – | – | – | – | 20292.7 | 32890.3 | 7695.05 | – | – | – | 0.035
30 | COc1cc(O)c(C(C)=O)c(OC)c1 [Xanthoxylin] | 0.422 | 0.877 | – | – | – | – | 26774.2 | 31416.6 | 22131.8 | – | – | 0.65 | –
31 | CC(C)=CCC/C(C)=C/Cc1cc(-c2coc3cc(O)ccc3c2=O)ccc1O [Corylifol A] | 0.054 | -0.445 | – | – | – | – | 17502.5 | 26996.8 | 8008.18 | – | – | – | -0.196
32 | COc1cc(O)c2c(=O)cc(-c3ccccc3)oc2c1 [Tectochrysin] | 0.481 | -0.371 | – | – | – | – | 20458.8 | 32119.1 | 8798.38 | – | – | – | 0.055
33 | C=C(C)[C@H](CC=C(C)C)Cc1c(O)cc(O)c2c1O[C@H](c1ccc(O)cc1OC)CC2=O [Leachianone A] | -0.298 | 0.052 | – | – | – | – | 18045.6 | 22771.5 | 13319.6 | – | – | – | -0.123
